# Test results reported in ChEMBL document CHEMBL3826915, “Design and comparative anticonvulsant activity assessment of CNS-active alkyl-carbamoyl imidazole derivatives” (Bioorg Med Chem, 2016).
# Active and inactive are the calls of the source. No cut-off for these calls is given here.
# Experiments:
# [1] = test system: Mus musculus; test: Neurotoxicity in albino CF1 mouse assessed as behavioral impairment at 50 mg/kg, ip after 0.5 hrs by rotorod test; assay type: toxicity, organism-based; conditions: in vivo
# [2] = test system: Mus musculus; test: Anticonvulsant activity in ip dosed albino CF1 mouse assessed as protection against maximal electroshock-induced seizures by measuring time to peak effect; assay type: functional
# [3] = test system: Mus musculus; test: Anticonvulsant activity in albino CF1 mouse assessed as protection against maximal electroshock-induced seizures at 30 mg/kg, ip after 2 hrs; assay type: functional, organism-based
# [4] = Neurotoxicity in ip dosed albino CF1 mouse assessed as motor impairment by rotorod test; assay type: toxicity, organism-based; conditions: in vivo
# [5] = test system: Mus musculus; test: Neurotoxicity in albino CF1 mouse assessed as behavioral impairment at 300 mg/kg, ip after 0.5 hrs by rotorod test; assay type: toxicity, organism-based; conditions: in vivo
# [6] = test system: Mus musculus; test: Anticonvulsant activity in albino CF1 mouse assessed as protection against 44 mA current-induced seizure at 50 mg/kg, ip after 0.25 hrs by 6 Hz psychomotor test; assay type: functional, organism-based
# [7] = test system: Mus musculus; test: Anticonvulsant activity in albino CF1 mouse assessed as protection against 32 mA current-induced seizure at 30 mg/kg, ip after 2 hrs by 6 Hz psychomotor test; assay type: functional, organism-based
# [8] = Protective index, ratio of TD50 for neurotoxicity in ip dosed albino CF1 mouse to ED50 for anticonvulsant activity in ip dosed maximal electroshock-induced seizure albino CF1 mouse model; assay type: toxicity, organism-based; conditions: in vivo, read-out: Ratio TD50/ED50
# [9] = test system: Rattus norvegicus; test: Anticonvulsant activity in ip dosed albino Sprague-Dawley rat assessed as protection against maximal electroshock-induced seizures; assay type: functional
# [10] = test system: Mus musculus; test: Anticonvulsant activity in ip dosed albino CF1 mouse assessed as protection against 6 Hz current-induced seizure by measuring time to peak effect; assay type: functional
# [11] = Protective index, ratio of TD50 for neurotoxicity in ip dosed albino CF1 mouse to ED50 for anticonvulsant activity in ip dosed […] metrazol-induced seizure albino CF1 mouse model; assay type: toxicity, organism-based; conditions: in vivo, read-out: Ratio TD50/ED50
# [12] = test system: Mus musculus; test: Neurotoxicity in albino CF1 mouse assessed as behavioral impairment at 30 mg/kg, ip after 0.5 hrs by rotorod test; assay type: toxicity, organism-based; conditions: in vivo
# [13] = test system: Rattus norvegicus; test: Neurotoxicity in albino Sprague-Dawley rat assessed as behavioral impairment at 30 mg/kg, po after 2 hrs by rotorod test; assay type: toxicity, organism-based; conditions: in vivo
# [14] = Protective index, ratio of TD50 for neurotoxicity in ip dosed albino Sprague-Dawley rat to ED50 for anticonvulsant activity in ip dosed maximal electroshock-induced seizure albino Sprague-Dawley rat model; assay type: toxicity, organism-based; conditions: in vivo, read-out: Ratio TD50/ED50
# [15] = test system: Mus musculus; test: Anticonvulsant activity in albino CF1 mouse assessed as protection against maximal electroshock-induced seizures at 100 mg/kg, ip after 0.5 hrs; assay type: functional, organism-based
# [16] = Neurotoxicity in ip dosed albino Sprague-Dawley rat assessed as motor impairment by rotorod test; assay type: toxicity, organism-based; conditions: in vivo
# [17] = test system: Mus musculus; test: Neurotoxicity in albino CF1 mouse assessed as behavioral impairment at 50 mg/kg, ip after 1 hr by rotorod test; assay type: toxicity, organism-based; conditions: in vivo
# [18] = test system: Mus musculus; test: Neurotoxicity in albino CF1 mouse assessed as behavioral impairment at 300 mg/kg, ip after 2 hrs by rotorod test; assay type: toxicity, organism-based; conditions: in vivo
# [19] = test system: Rattus norvegicus; test: Neurotoxicity in albino Sprague-Dawley rat assessed as behavioral impairment at 30 mg/kg, ip after 2 hrs by rotorod test; assay type: toxicity, organism-based; conditions: in vivo
# [20] = test system: Rattus norvegicus; test: Neurotoxicity in albino Sprague-Dawley rat assessed as behavioral impairment at 30 mg/kg, po after 1 hr by rotorod test; assay type: toxicity, organism-based; conditions: in vivo
# [21] = test system: Mus musculus; test: Anticonvulsant activity in ip dosed albino CF1 mouse assessed as protection against 6 Hz current-induced seizures by psychomotor test; assay type: functional
# [22] = Protective index, ratio of TD50 for neurotoxicity in ip dosed albino Sprague-Dawley rat to ED50 for anticonvulsant activity in ip dosed subcutaneous metrazol-induced seizure albino Sprague-Dawley rat model; assay type: toxicity, organism-based; conditions: in vivo, read-out: Ratio TD50/ED50
# [23] = test system: Mus musculus; test: Neurotoxicity in albino CF1 mouse assessed as behavioral impairment at 50 mg/kg, ip after 0.25 hrs by rotorod test; assay type: toxicity, organism-based; conditions: in vivo
# [24] = test system: Rattus norvegicus; test: Anticonvulsant activity in ip dosed albino Sprague-Dawley rat assessed as protection against subcutaneous metrazol-induced seizures by measuring time to peak effect; assay type: functional
# [25] = test system: Rattus norvegicus; test: Neurotoxicity in albino Sprague-Dawley rat assessed as behavioral impairment at 30 mg/kg, ip after 0.5 hrs by rotorod test; assay type: toxicity, organism-based; conditions: in vivo
# [26] = test system: Mus musculus; test: Neurotoxicity in albino CF1 mouse assessed as behavioral impairment at 50 mg/kg, ip after 2 hrs by rotorod test; assay type: toxicity, organism-based; conditions: in vivo
# [27] = test system: Rattus norvegicus; test: Neurotoxicity in albino Sprague-Dawley rat assessed as behavioral impairment at 30 mg/kg, po after 0.5 hrs by rotorod test; assay type: toxicity, organism-based; conditions: in vivo
# [28] = test system: Mus musculus; test: Anticonvulsant activity in ip dosed albino CF1 mouse assessed as protection against subcutaneous metrazol-induced seizures; assay type: functional
# [29] = test system: Rattus norvegicus; test: Neurotoxicity in albino Sprague-Dawley rat assessed as behavioral impairment at 30 mg/kg, ip after 0.25 hrs by rotorod test; assay type: toxicity, organism-based; conditions: in vivo
# [30] = test system: Mus musculus; test: Anticonvulsant activity in albino CF1 mouse assessed as protection against 44 mA current-induced seizure at 50 mg/kg, ip after 2 hrs by 6 Hz psychomotor test; assay type: functional, organism-based
# [31] = test system: Mus musculus; test: Anticonvulsant activity in ip dosed albino CF1 mouse assessed as protection against maximal electroshock-induced seizures; assay type: functional
# [32] = test system: Rattus norvegicus; test: Anticonvulsant activity in albino Sprague-Dawley rat assessed as protection against maximal electroshock-induced seizures at 30 mg/kg, po after 2 hrs; assay type: functional, organism-based
# [33] = test system: Rattus norvegicus; test: Neurotoxicity in albino Sprague-Dawley rat assessed as behavioral impairment at 30 mg/kg, ip after 1 hr by rotorod test; assay type: toxicity, organism-based; conditions: in vivo
# [34] = test system: Rattus norvegicus; test: Anticonvulsant activity in albino Sprague-Dawley rat assessed as protection against maximal electroshock-induced seizures at 30 mg/kg, po after 1 hr; assay type: functional, organism-based
# [35] = test system: Mus musculus; test: Neurotoxicity in albino CF1 mouse assessed as behavioral impairment at 30 mg/kg, ip after 2 hrs by rotorod test; assay type: toxicity, organism-based; conditions: in vivo
# [36] = test system: Mus musculus; test: Neurotoxicity in albino CF1 mouse assessed as behavioral impairment at 100 mg/kg, ip after 2 hrs by rotorod test; assay type: toxicity, organism-based; conditions: in vivo
# [37] = test system: Mus musculus; test: Anticonvulsant activity in ip dosed albino CF1 mouse assessed as protection against subcutaneous metrazol-induced seizures by measuring time to peak effect; assay type: functional
# [38] = test system: Mus musculus; test: Anticonvulsant activity in albino CF1 mouse assessed as protection against 32 mA current-induced seizure at 30 mg/kg, ip after 0.5 hrs by 6 Hz psychomotor test; assay type: functional, organism-based
# [39] = test system: Mus musculus; test: Anticonvulsant activity in albino CF1 mouse assessed as protection against 44 mA current-induced seizure at 50 mg/kg, ip after 1 hr by 6 Hz psychomotor test; assay type: functional, organism-based
# [40] = test system: Rattus norvegicus; test: Anticonvulsant activity in ip dosed albino Sprague-Dawley rat assessed as protection against maximal electroshock-induced seizures by measuring time to peak effect; assay type: functional
# [41] = test system: Rattus norvegicus; test: Neurotoxicity in albino Sprague-Dawley rat assessed as behavioral impairment at 30 mg/kg, po after 0.25 hrs by rotorod test; assay type: toxicity, organism-based; conditions: in vivo
# [42] = test system: Rattus norvegicus; test: Anticonvulsant activity in ip dosed albino Sprague-Dawley rat assessed as protection against subcutaneous metrazol-induced seizures; assay type: functional
# [43] = test system: Mus musculus; test: Neurotoxicity in albino CF1 mouse assessed as behavioral impairment at 100 mg/kg, ip after 0.5 hrs by rotorod test; assay type: toxicity, organism-based; conditions: in vivo
# [44] = test system: Mus musculus; test: Neurotoxicity in albino CF1 mouse assessed as behavioral impairment at 100 mg/kg, ip after 1 hr by rotorod test; assay type: toxicity, organism-based; conditions: in vivo
# [45] = test system: Mus musculus; test: Anticonvulsant activity in albino CF1 mouse assessed as protection against maximal electroshock-induced seizures at 100 mg/kg, ip after 2 hrs; assay type: functional, organism-based
# [46] = test system: Mus musculus; test: Neurotoxicity in albino CF1 mouse assessed as behavioral impairment at 100 mg/kg, ip after 0.25 hrs by rotorod test; assay type: toxicity, organism-based; conditions: in vivo
# [47] = test system: Rattus norvegicus; test: Anticonvulsant activity in albino Sprague-Dawley rat assessed as protection against maximal electroshock-induced seizures at 30 mg/kg, po after 0.25 hrs; assay type: functional, organism-based
# [48] = test system: Mus musculus; test: Anticonvulsant activity in albino CF1 mouse assessed as protection against 44 mA current-induced seizure at 100 mg/kg, ip after 0.5 hrs by 6 Hz psychomotor test; assay type: functional, organism-based
# [49] = test system: Rattus norvegicus; test: Anticonvulsant activity in albino Sprague-Dawley rat assessed as protection against maximal electroshock-induced seizures at 30 mg/kg, ip after 0.5 hrs; assay type: functional, organism-based
# [50] = test system: Mus musculus; test: Anticonvulsant activity in albino CF1 mouse assessed as protection against 44 mA current-induced seizure at 100 mg/kg, ip after 0.25 hrs by 6 Hz psychomotor test; assay type: functional, organism-based
# [51] = Volume of distribution in human; assay type: ADME, organism-based; conditions: in vivo
# [52] = Clearance in human; assay type: ADME, organism-based; conditions: in vivo
# [53] = Half life in human; assay type: ADME, organism-based; conditions: in vivo
smiles,measurement,setting,value
CCCC(COC(=O)NCCCn1ccnc1)C(C)CC (stereo not drawn),Activity,[1],Non-toxic
same,Time,[2],0.5 h
same,Activity,[3],inactive
same,TD50,[4],67 mg/kg
same,Activity,[5],Toxic
same,Activity,[6],inactive
same,Activity,[7],inactive
same,selectivity ratio,[8],2.8
same,ED50,[9],20 mg/kg
same,Time,[10],0.5 h
same,selectivity ratio,[11],0.67
same,Activity,[12],Non-toxic
same,Activity,[13],Non-toxic
same,selectivity ratio,[14],4.8
same,Activity,[15],Active
same,TD50,[16],96 mg/kg
same,Activity,[17],Non-toxic
same,Activity,[18],Toxic
same,Activity,[19],Non-toxic
same,Activity,[20],Non-toxic
same,ED50,[21],inactive
same,selectivity ratio,[22],1
same,Activity,[23],Non-toxic
same,Time,[24],0.25 h
same,Activity,[25],Non-toxic
same,Activity,[26],Non-toxic
same,Activity,[27],Non-toxic
same,ED50,[28],> 100 mg/kg
same,Activity,[29],Non-toxic
same,Activity,[30],inactive
same,ED50,[31],24 mg/kg
same,Activity,[32],inactive
same,Activity,[33],Non-toxic
same,Activity,[34],inactive
same,Activity,[35],Non-toxic
same,Activity,[36],Non-toxic
same,Time,[37],0.5 h
same,Activity,[38],inactive
same,Activity,[39],inactive
same,Time,[40],0.25 h
same,Activity,[41],Non-toxic
same,ED50,[42],> 95 mg/kg
CCC(CC)COC(=O)NCCCn1ccnc1,Time,[2],0.5 h
same,Activity,[43],Toxic
same,Activity,[3],inactive
same,Activity,[44],Non-toxic
same,TD50,[4],102 mg/kg
same,Activity,[5],Toxic
same,Activity,[7],inactive
same,selectivity ratio,[8],3.9
same,Time,[10],0.5 h
same,selectivity ratio,[11],1.2
same,Activity,[45],Active
same,Activity,[12],Non-toxic
same,Activity,[13],Non-toxic
same,Activity,[46],Toxic
same,Activity,[15],Active
same,Activity,[18],Toxic
same,Activity,[47],inactive
same,Activity,[19],Non-toxic
same,Activity,[20],Non-toxic
same,ED50,[21],inactive
same,Activity,[48],Active
same,Activity,[25],Non-toxic
same,Activity,[27],Non-toxic
same,Activity,[49],Active
same,ED50,[28],> 85 mg/kg
same,Activity,[29],Non-toxic
same,ED50,[31],26 mg/kg
same,Activity,[33],Non-toxic
same,Activity,[50],Active
same,Activity,[35],Non-toxic
same,Activity,[36],Non-toxic
same,Time,[37],0.5 h
same,Activity,[41],Non-toxic
OC(Cn1ccnc1)c1ccc(CCc2ccccc2)cc1 (stereo not drawn) [DENZIMOL],Vd,[51],3 L/kg
same,clearance,[52],5 mL/min/kg
same,half-life,[53],5 h
